This test addresses 3-phosphoinositide-dependent protein kinase 1 (Homo sapiens) (UniProt O15530). Briefly: Inhibition of recombinant PDK1 (unknown origin).

Each structure is given as a SMILES string.

Turning to `COc1cc2ncnc(Nc3ccc(F)c(Cl)c3)c2cc1NC(=O)/C=C/CN1CCCCC1` [DACOMITINIB], the IC50 was more than 10 µM.

The values above are taken from BindingDB's records for PubMed 18089823 (Harvard Medical School).
